Results from PMC3463238 (Toxicology letters, 2012).
Like-named read-outs stand apart in the source and are kept apart here. Marks after values point to notes of the source that are not given here.

Key:
[1] = Reactivity of styrene oxide and halogenated styrene oxides to cysteamine; assay type: physicochemical; settings: oxide 1.0 μM, cysteamine 100 μM, phosphate buffer, 37 °C
[2] = Observed stability of the compound; assay type: physicochemical
[3] = system: CYP2E1 transgenic cells (h2E1); settings: for Decrease in cell viability relative to vehicle group: 24 h, 100 μM
[4] = system: cellular proteins of CYP2E1 cells; settings: human, 24 h, 100 μM
[5] = system: cellular proteins of wild-type cells; settings: human, 24 h, 100 μM
recombinant human CYP2E1 = recombinant human CYP2E1 (Homo sapiens, UniProt P05181); settings: pH 7.4
Sequence of recombinant human CYP2E1 (P05181 whole entry): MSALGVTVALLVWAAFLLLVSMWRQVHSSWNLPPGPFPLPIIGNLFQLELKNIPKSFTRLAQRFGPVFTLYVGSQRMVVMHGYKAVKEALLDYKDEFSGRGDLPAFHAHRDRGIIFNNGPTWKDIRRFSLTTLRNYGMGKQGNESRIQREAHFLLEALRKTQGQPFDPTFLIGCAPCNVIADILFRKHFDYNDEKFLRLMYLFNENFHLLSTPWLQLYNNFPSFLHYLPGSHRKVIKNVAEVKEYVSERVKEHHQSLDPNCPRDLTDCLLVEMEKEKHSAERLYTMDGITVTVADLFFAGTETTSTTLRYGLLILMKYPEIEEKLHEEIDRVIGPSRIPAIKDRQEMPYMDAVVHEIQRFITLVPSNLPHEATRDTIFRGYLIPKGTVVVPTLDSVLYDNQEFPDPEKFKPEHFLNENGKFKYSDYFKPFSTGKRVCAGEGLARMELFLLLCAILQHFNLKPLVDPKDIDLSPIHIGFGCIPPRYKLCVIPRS

in vitro [6] = settings: human
in vitro [7] = settings: human; remark: listed apart in the source
[8] = Cellular GSH contents in CYP2E1 cells; settings: human
[9] = system: cellular proteins of CYP2E1 cells; experiment: Cellular protein covalent binding of 14C-labeled styrenes in CYP2E1 cells; settings: 14C-labeled compound 100 μM, 24 h
[10] = Cytotoxicity in CYP2E1 transgenic cells; settings: human

| SMILES | Rate constant for production of the cysteamine adducts [1] [min⁻¹] | Bioactivation index (k × Vmax/Km) (recombinant human CYP2E1) | viability at 24 h, 100 µM (in vitro [6]) [%] | activity at 3 h, 100 µM (in vitro [7]) [%] | further results |
| --- | --- | --- | --- | --- | --- |
| Brc1ccc(C2CO2)cc1 (stereo not drawn) [4-bromostyrene oxide] | 29.3 ± 3.19 |  |  |  |  |
| Clc1ccc(C2CO2)cc1 (stereo not drawn) [4-chlorostyrene oxide] | 16.1 ± 2.08 |  |  |  |  |
| Fc1ccc(C2CO2)cc1 (stereo not drawn) [4-fluorostyrene oxide] | 15.7 ± 1.57 |  |  |  |  |
| C=Cc1ccc(I)cc1 [4-iodostyrene] |  |  |  |  | Stability [2]: unstableness; Toxicity to CYP2E1 cells compared with another compound ([3]; human): more toxic than 4-bromostyrene |
| C=Cc1ccc(Br)cc1 [Br-ST, 4-bromostyrene] |  | 31.9 ± 3.48 ^c | 39.6 ± 4.1 | 61 ± 6.5 | Decrease in cell viability relative to vehicle group ([3]; human): 39.6%; Binding load (radioactivity bound to cellular proteins) [4]: 6.17 nmol/mg protein; Fold lower radioactivity bound to proteins in wild-type cells than CYP2E1 cells [5]: 5 fold |
| C=Cc1ccc(Cl)cc1 [Cl-ST, 4-chlorostyrene] |  | 15.8 ± 2.03 ^b | 57.7 ± 9.9 | 71.2 ± 5.8 | Decrease in cell viability relative to vehicle group ([3]; human): 57.7% |
| C=Cc1ccc(F)cc1 [F-ST, 4-fluorostyrene] |  | 10.4 ± 0.64 ^a | 78.8 ± 3.2 | 82.4 ± 2.2 | Toxicity to CYP2E1 cells compared with another compound [3]: little difference in toxicity; Binding load (radioactivity bound to cellular proteins) [4]: 2.27 nmol/mg protein |
| C=Cc1ccccc1 [ST, Styrene] |  |  |  |  | activity at 3 h, 100 µM [8]: 83.7 ± 2.1%; Binding load (radioactivity bound to cellular proteins) [9]: 2.02 nmol/mg protein; viability at 24 h, 100 µM [10]: 80 ± 3% |
| c1ccc(C2CO2)cc1 (stereo not drawn) [styrene oxide] | 13.4 ± 1.88 |  |  |  |  |
